From US10611760B2, “Therapeutic compounds as inhibitors of the orexin-1 receptor” (C4X Discovery Limited, priority 2014, dated 2020)
Structures can show the parent of a compound that is named as a salt.

Tests used:
Type in all cases: cell-based
hOX2R [1] = target: T1, hOX2R (Homo sapiens, UniProt O43614); assay: Intracellular calcium measurements using division-arrested cells, OX2; conditions: agonist orexin B at 2×EC50, * = single experiment, otherwise average of at least two, read-out: pIC50 OX2 (converted)
T1 sequence (O43614 1-444): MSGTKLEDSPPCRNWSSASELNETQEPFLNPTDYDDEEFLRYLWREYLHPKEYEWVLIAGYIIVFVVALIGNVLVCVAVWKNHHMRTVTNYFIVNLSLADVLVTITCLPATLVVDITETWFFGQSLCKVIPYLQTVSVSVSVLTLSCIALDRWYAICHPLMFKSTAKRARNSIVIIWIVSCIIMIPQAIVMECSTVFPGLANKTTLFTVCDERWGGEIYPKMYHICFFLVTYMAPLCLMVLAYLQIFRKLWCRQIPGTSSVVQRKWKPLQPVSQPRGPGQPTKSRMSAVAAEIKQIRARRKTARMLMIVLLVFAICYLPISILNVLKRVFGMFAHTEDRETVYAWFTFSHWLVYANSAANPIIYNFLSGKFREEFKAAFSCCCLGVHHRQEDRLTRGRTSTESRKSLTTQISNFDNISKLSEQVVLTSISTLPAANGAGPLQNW
Protocol: Intracellular Calcium Measurements Using Division-arrested Cells (Table 1):
Test compounds are prepared as 10 mM stock solutions in DMSO, then serially diluted in half log concentrations with DMSO followed by dilution with assay buffer (HBSS (Sigma-Aldrich, H8264) containing 20 mM HEPES (Sigma-Aldrich, H4034), 0.1% (w/v) bovine serum albumin and adjusted to pH 7.4) to a top final assay concentration of 10 μM.
Human OX1 (CT-A474) and human OX2 (CT-A475) receptor-expressing division-arrested cells are plated into 384 well black, clear bottom, cell-bind plates at a seeding density of 10,000 cells/50 μL growth media. The seeded plates are incubated at 37° C. in air supplemented with 5% CO2 for 16 hrs.
The media is removed and replaced with 30 μL/well of cell loading buffer (a vial of Calcium 5 is solubilized in 22 mL of assay buffer to which a freshly prepared 250 mM solution of probenecid in 1:1 1M NaOH to assay buffer (200 μL) is added) and the cells incubated for 1 hr at 37° C. The serially diluted test compounds (10 μL/well) are added to the plate, which is then incubated for 10 mins and placed in a FlexStation III reader.

hOX2R [2] = target: T1, hOX2R; assay: Intracellular calcium measurements using stable-replicating cells, Method A, OX2; conditions: orexin-A at 4×EC50, * = single experiment, read-out: pIC50 OX2 (converted)
Protocol: (§1) Intracellular Calcium Measurements Using Stable-replicating Cells:
(§2) Method A (Table 2): Test compounds are prepared as 10 mM stock solutions in DMSO, warmed briefly for 20 seconds at 37° C. and serially diluted in half log concentrations with DMSO followed by dilution with assay buffer (HBSS (Sigma-Aldrich, H8264) containing 10 mM HEPES (Invitrogen, 15630080) and pH adjusted to 7.4) to a top final assay concentration of 10 μM.
(§3) Human OX1 (CT-A674) and human OX2 (CT-A675) receptor-expressing stable-replicating cells are grown in a culture medium, Ham F12 (Invitrogen, 31765-035) containing 10% fetal bovine serum (Invitrogen, 16000044), 1% non-essential amino acids (Invitrogen, 11140-050), 100 U/mL Penicillin/Streptomycin (Invitrogen, 15140-122) and G418 (Invitrogen, 11811023) at a concentration of 400 μg/mL. The cells are seeded at a density of 7,000 cells/well into black, clear bottom 384-well plates (Corning, 3683) and incubated at 37° C. in air supplemented with 5% CO2 for 16 hrs.
(§4) Loading dye (25 μL/well), prepared from a FLIPR Calcium 6 Assay kit (Molecular Devices, R8190-Explorer) according to the manufacturer's instructions, and the serially diluted test compounds (10 μL/well) are added to the plate. The plate is then incubated for 30 mins at 37° C. in 5% CO2, then for 30 mins at ambient temperature and placed into a FlexStation III reader.

hOX1R [3] = target: T2, hOX1R (Homo sapiens, UniProt O43613); assay: Intracellular calcium measurements using stable-replicating cells, Method B (CHO cells, FLIPR Tetra), OX1; conditions: orexin A at EC75, read-out: pIC50 OX1 (converted)
T2 sequence (O43613 1-425): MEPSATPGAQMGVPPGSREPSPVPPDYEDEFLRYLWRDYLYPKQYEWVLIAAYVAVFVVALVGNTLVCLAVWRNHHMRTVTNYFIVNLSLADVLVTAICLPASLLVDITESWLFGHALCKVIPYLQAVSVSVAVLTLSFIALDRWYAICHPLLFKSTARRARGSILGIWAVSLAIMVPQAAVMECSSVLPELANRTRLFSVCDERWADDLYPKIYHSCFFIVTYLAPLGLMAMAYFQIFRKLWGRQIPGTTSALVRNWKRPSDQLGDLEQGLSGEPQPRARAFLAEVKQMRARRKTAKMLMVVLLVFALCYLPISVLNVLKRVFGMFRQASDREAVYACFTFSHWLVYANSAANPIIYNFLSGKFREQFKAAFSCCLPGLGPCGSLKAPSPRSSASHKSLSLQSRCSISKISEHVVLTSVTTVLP
Protocol: as §1
(§5) Human OX1 or human OX2 receptor expressing CHO cells are plated into 384 well black, clear bottom, CellBIND plates at a seeding density of 10,000 cells/75 μL growth media. The seeded plates are incubated at 37° C. in air supplemented with 5% CO2 overnight.
(§6) The next day media is removed and replaced with 30 μL/well of cell loading buffer (a vial of Calcium 5 is solubilized in 20 mL of assay buffer) and the cells incubated for 1 hr at 37° C. The serially diluted test compounds (10 μL/well) are added to the cell plate by the FLIPR Tetra and the addition is monitored for 5 mins by the instrument. The cell plate is then removed and incubated for additional 25 mins in a humidified incubator at […] prior to being placed back into the FLIPR Tetra. Finally 10 μL of orexin A in assay buffer +0.1% (w/v) bovine serum albumin is dispensed by the FLIPR Tetra at an EC75 concentration determined for each assay run. Fluorescence is measured at excitation and emission wavelengths of 485 nm and 525 nm respectively and data analyzed using GraphPad Prism for the EC75 value of orexin A and Aplus to determine an IC50 value for each test compound.

hOX1R [4] = target: T2, hOX1R; assay: Intracellular calcium measurements using division-arrested cells, OX1; conditions: agonist orexin A at 2×EC50, * = single experiment, otherwise average of at least two, read-out: pIC50 OX1 (converted)
Method in brief: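 Division-arrested cells expressing human OX1 or OX2 were seeded for 16 h, then loaded with Calcium 5 dye plus probenecid for 1 h at 37 °C. Compounds in HEPES-buffered HBSS with 0.1% BSA, pH 7.4, top final concentration 10 μM, were added 10 min before the FlexStation calcium read.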

hOX2R [5] = target: T1, hOX2R; assay: Intracellular calcium measurements using stable-replicating cells, Method B (CHO cells, FLIPR Tetra), OX2; conditions: orexin A at EC75, read-out: pIC50 OX2 (converted)
Protocol: as §1, §5, §6

hOX1R [6] = target: T2, hOX1R; assay: Intracellular calcium measurements using stable-replicating cells, Method A, OX1; conditions: orexin-A at 4×EC50, * = single experiment, read-out: pIC50 OX1 (converted)
Protocol: as §1, §2, §3, §4

Compound	IC50 (hOX2R [1]) [nM]	IC50 (hOX2R [2]) [nM]	IC50 (hOX1R [3]) [nM]	IC50 (hOX1R [4]) [nM]	IC50 (hOX2R [5]) [nM]	IC50 (hOX1R [6]) [nM]
CC[C@@H](CNc1ccc(Cl)cn1)N(C)C(=O)c1cc(C)ccc1-n1nccn1 [Example 1, (S)—N-(1-((5-chloropyridin-2-yl)amino)butan-2-yl)-N,5-dimethyl-2-(2H-1,2,3-triazol-2-yl)benzamide]	1000	1260				
CC[C@@H](CNc1ccc(Cl)cn1)N(C)C(=O)c1cc(OC(F)(F)F)ccc1-n1nccn1 [Example 20, (S)—N-(1-((5-chloropyridin-2-yl)amino)butan-2-yl)-N-methyl-2-(2H-1,2,3-triazol-2-yl)-5-(trifluoromethoxy)benzamide]			100	200	3160	
CC[C@@H](CNc1ccc(Cl)cn1)N(C)C(=O)c1cc(C(F)(F)F)cnc1-n1nccn1 [Example 24, (S)—N-(1-((5-chloropyridin-2-yl)amino)butan-2-yl)-N-methyl-2-(2H-1,2,3-triazol-2-yl)-5-(trifluoromethyl)nicotinamide]	> 10000		3980	2000	> 10000	
CC[C@@H](CNc1ncc(C(F)(F)F)cn1)N(C)C(=O)c1cc(Cl)ccc1-n1nccn1 [Example 39, (S)-5-chloro-N-methyl-2-(2H-1,2,3-triazol-2-yl)-N-(1-((5-(trifluoromethyl)pyrimidin-2-yl)amino)butan-2-yl)benzamide]	1000	> 10000			1580	
CC[C@@H](CNc1nc2ccccc2s1)N(C)C(=O)c1cc(Cl)ccc1-n1nccn1 [Example 44, (S)—N-(1-(benzo[d]thiazol-2-ylamino)butan-2-yl)-5-chloro-N-methyl-2-(2H-1,2,3-triazol-2-yl)benzamide]			1.58			7.94
Cc1ccc(-n2nccn2)c(C(=O)N(C)[C@H](CNc2ccc(Cl)cn2)C(C)C)c1 [Example 49, (S)—N-(1-((5-chloropyridin-2-yl)amino)-3-methylbutan-2-yl)-N,5-dimethyl-2-(2H-1,2,3-triazol-2-yl)benzamide]	> 5010		5.01	31.6	> 3980	
CC[C@@H](CNc1nc2ccccc2o1)N(C)C(=O)c1nc(C)ccc1-n1nccn1 [Example 62, (S)—N-(1-(benzo[d]oxazol-2-ylamino)butan-2-yl)-N,6-dimethyl-3-(2H-1,2,3-triazol-2-yl)picolinamide]			3.16		2510	5.01
CC[C@@H](CNc1ccc(Cl)cn1)N(C)C(=O)c1cc(C)c(C)cc1-n1nccn1 [Example 86, (S)—N-(1-((5-chloropyridin-2-yl)amino)butan-2-yl)-N,4,5-trimethyl-2-(2H-1,2,3-triazol-2-yl)benzamide]		316				7.94

Continued, values first:

IC50 (hOX2R [1]) [nM]	IC50 (hOX2R [2]) [nM]	IC50 (hOX1R [3]) [nM]	IC50 (hOX1R [4]) [nM]	IC50 (hOX2R [5]) [nM]	IC50 (hOX1R [6]) [nM]	Compound
1580		1.58	25.1	501		CC[C@@H](CNc1ccc(Cl)cn1)N(C)C(=O)c1cc(Br)ccc1-n1nccn1 [Example 19, (S)-5-bromo-N-(1-((5-chloropyridin-2-yl)amino)butan-2-yl)-N-methyl-2-(2H-1,2,3-triazol-2-yl)benzamide]
> 10000		20	200	> 5010		CC[C@@H](CNc1ccc(C(F)(F)F)nn1)N(C)C(=O)c1cc(Cl)ccc1-n1nccn1 [Example 41, (S)-5-chloro-N-methyl-2-(2H-1,2,3-triazol-2-yl)-N-(1-((6-(trifluoromethyl)pyridazin-3-yl)amino)butan-2-yl)benzamide]
	> 10000				126	CC[C@@H](CNc1ncc(Cl)cc1[N+](=O)[O-])N(C)C(=O)c1cc(Cl)ccc1-n1nccn1 [Example 45, (S)-5-chloro-N-(1-((5-chloro-3-nitropyridin-2-yl)amino)butan-2-yl)-N-methyl-2-(2H-1,2,3-triazol-2-yl)benzamide]
	> 10000				39.8	CC[C@@H](CNc1ncc(Cl)cc1N)N(C)C(=O)c1cc(Cl)ccc1-n1nccn1 [Example 60, (S)—N-(1-((3-amino-5-chloropyridin-2-yl)amino)butan-2-yl)-5-chloro-N-methyl-2-(2H-1,2,3-triazol-2-yl)benzamide]
	2510				5.01	CC[C@@H](CNc1nc2cc(Cl)ccc2o1)N(C)C(=O)c1nc(C)ccc1-n1nccn1 [Example 64, (S)—N-(1-((5-chlorobenzo[d]oxazol-2-yl)amino)butan-2-yl)-N,6-dimethyl-3-(2H-1,2,3-triazol-2-yl)picolinamide]
		2		> 1000		CC[C@@H](CNc1ncc(C(F)(F)F)cn1)N(C)C(=O)c1nc(C)ccc1-n1cccn1 [Example 90, (S)—N,6-dimethyl-3-(1H-pyrazol-1-yl)-N-(1-((5-(trifluoromethyl)pyrimidin-2-yl)amino)butan-2-yl)picolinamide formic acid salt]
		25.1		> 7940		CC[C@@H](CNc1ncc(C(F)(F)F)cn1)N(C)C(=O)c1c(F)cccc1-n1nccn1 [Example 91, (S)-2-fluoro-N-methyl-6-(2H-1,2,3-triazol-2-yl)-N-(1-((5-(trifluoromethyl)pyrimidin-2-yl)amino)butan-2-yl)benzamide]
